Assay [1] deals with Voltage-dependent T-type calcium channel subunit alpha-1H (Homo sapiens, UniProt O95180). It counts as functional.
The target of assay [2] is Multidrug resistance protein CDR1 (Candida albicans, UniProt P43071). Kind of assay: inhibition of Nile Red efflux via Candida CDR1 – S. cerevisiae AD1-8u, singleplex, Cherry Pick1 hits, dose response (AID 588606). Format: functional.
Assay [3] has as its system HEK293. Kind of assay: membrane integrity loss in HEK cells – cell-based, fluorescence, cytotoxicity control for IDE activator project, dose response (AID 588440).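 Note: cytotoxicity by LDH release measuring loss of membrane integrity.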 It counts as functional. Conditions: Homo sapiens.
Assay [4] deals with T1, Insulin-degrading enzyme (Homo sapiens, UniProt P14735). Kind of assay: cellular IDE activation of Abeta substrate cleavage – fluorescence polarization, HEK cells, dose response (AID 588439). It counts as functional, cell-based.
The subject of assay [5] is HEK293. Kind of assay: optical interference in Abeta FP readout, dose response, artefact control for IDE activator project, biochemical, fluorescence polarization (AID 588442). It counts as functional, cell-based. Conditions: Homo sapiens. A general note: Fluorescence polarisation rises when a labelled molecule tumbles more slowly, as on binding a larger partner.
Assay [6] addresses T1, Insulin-degrading enzyme. Kind of assay: recombinant IDE activation, cell-free – biochemical, fluorescence polarization, counter-screen for IDE activator project, dose response (AID 588681).
Assay [7] has as its target Protein disulfide-isomerase (Homo sapiens, UniProt P07237). Kind of assay: inhibition of PDI-driven insulin aggregation – biochemical, turbidity, absorbance, cherry-picked samples, dose response (AID 602350). It counts as functional.
Assay [8] can be described thus: Luminescence Cell-Based Dose Confirmation HTS to Identify Inhibitors of Polyadenylation. It counts as functional.
The target in assay [9] is Beta-lactamase (Pseudomonas aeruginosa, UniProt Q79MP6).
Assay [10] addresses Beta-lactamase (Salmonella choleraesuis (strain SC-B67), UniProt Q5J463).
Assay [11] concerns the target 72 kDa type IV collagenase (Homo sapiens, UniProt P08253). Kind of assay: Dose Response validation of uHTS RPN11 inhibitor hits using a MMP-2 Fluorescence assay. Format: functional.
Assay [12] can be described thus: mRNA 3' processing disruption, beta-gal signal increase – luminescence, S. cerevisiae SKY197-pL101, dose response (AID 2525). It counts as functional, cell-based.
The target of the next assay is Prothrombin (Bos taurus, UniProt P00735). Kind of assay: thrombin protease inhibitors – biochemical, fluorescence polarization, uHTS hits, dose response (AID 602369). Format: functional.
The target in assay [13] is 26S proteasome non-ATPase regulatory subunit 14 (Homo sapiens, UniProt O00487). Kind of assay: inhibition of proteasome subunit RPN11 – biochemical, fluorescence polarization, uHTS hits, confirmation (AID 602368). It counts as functional.
For assay [14], the target named is T2, Sentrin-specific protease 7 (Homo sapiens, UniProt Q9BQF6).
T2 sequence (Q9BQF6 whole entry): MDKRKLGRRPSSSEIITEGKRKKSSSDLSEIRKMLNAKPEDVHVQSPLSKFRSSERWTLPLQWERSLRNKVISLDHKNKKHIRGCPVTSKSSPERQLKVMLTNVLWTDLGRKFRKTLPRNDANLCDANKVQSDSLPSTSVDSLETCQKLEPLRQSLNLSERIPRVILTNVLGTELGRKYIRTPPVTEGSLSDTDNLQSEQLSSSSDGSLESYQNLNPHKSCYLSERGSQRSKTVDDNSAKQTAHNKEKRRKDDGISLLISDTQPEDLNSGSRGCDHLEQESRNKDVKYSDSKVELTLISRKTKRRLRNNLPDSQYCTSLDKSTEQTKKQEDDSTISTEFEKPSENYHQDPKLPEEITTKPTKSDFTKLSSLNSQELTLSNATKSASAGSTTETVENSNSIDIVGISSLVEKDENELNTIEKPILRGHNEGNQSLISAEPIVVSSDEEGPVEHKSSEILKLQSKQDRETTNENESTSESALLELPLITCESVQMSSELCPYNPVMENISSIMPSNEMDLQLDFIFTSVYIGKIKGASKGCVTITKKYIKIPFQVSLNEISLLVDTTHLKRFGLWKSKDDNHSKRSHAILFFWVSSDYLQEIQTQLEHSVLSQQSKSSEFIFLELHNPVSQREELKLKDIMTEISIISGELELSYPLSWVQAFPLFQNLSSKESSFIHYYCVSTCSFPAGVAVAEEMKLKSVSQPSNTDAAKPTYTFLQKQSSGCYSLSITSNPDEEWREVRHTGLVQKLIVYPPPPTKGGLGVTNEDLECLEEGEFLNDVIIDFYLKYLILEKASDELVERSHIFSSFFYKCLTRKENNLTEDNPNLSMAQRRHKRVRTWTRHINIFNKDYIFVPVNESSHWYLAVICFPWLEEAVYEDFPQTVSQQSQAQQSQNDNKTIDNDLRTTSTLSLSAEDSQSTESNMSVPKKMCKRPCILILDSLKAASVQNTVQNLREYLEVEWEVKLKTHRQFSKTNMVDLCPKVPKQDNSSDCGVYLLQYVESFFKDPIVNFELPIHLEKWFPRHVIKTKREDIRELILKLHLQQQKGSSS
Kind of assay: inhibition of human SENP7 cleavage activity – biochemical, luminescence, SAR follow-up (AID 504497). Format: functional.

In assay [15] the target is T3, Sentrin-specific protease 6 (Homo sapiens, UniProt Q9GZR1).
T3 sequence (Q9GZR1 whole entry): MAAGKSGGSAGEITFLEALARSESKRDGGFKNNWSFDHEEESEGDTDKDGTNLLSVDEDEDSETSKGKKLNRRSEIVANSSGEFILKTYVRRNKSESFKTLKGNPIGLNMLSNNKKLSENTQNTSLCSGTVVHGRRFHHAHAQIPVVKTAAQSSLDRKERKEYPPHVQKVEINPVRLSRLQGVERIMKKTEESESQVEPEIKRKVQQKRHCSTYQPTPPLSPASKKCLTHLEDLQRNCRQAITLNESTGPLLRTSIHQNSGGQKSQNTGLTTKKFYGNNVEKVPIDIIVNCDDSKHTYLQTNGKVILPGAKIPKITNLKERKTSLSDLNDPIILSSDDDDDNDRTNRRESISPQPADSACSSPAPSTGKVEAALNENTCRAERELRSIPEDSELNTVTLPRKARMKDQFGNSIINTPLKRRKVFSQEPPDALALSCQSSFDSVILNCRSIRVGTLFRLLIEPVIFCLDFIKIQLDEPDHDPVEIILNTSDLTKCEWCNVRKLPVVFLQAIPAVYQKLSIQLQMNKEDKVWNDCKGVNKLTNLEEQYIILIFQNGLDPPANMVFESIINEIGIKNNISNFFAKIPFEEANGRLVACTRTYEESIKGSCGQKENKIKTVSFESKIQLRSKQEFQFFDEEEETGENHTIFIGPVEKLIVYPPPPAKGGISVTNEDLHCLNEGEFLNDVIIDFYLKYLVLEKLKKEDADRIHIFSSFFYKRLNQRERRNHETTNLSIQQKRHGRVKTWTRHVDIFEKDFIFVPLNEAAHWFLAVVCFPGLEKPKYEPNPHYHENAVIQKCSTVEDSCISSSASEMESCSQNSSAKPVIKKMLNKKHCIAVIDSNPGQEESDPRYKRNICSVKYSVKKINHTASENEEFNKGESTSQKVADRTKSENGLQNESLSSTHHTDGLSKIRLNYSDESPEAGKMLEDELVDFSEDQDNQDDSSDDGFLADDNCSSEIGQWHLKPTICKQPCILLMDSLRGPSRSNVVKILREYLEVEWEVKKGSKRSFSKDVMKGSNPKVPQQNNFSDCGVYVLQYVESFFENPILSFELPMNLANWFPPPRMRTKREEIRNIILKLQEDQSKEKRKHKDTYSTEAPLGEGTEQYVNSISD
Kind of assay: SAR Analysis of small molecule inhibitors of Sentrin-specific protease 6 (SENP6) using a Luminescent assay. [Related pubchem assays (depositor defined):AID2582, AID2599]. It counts as functional.

A further assay addresses T4, Caspase-3 (Homo sapiens, UniProt P42574).
T4 sequence (P42574 whole entry): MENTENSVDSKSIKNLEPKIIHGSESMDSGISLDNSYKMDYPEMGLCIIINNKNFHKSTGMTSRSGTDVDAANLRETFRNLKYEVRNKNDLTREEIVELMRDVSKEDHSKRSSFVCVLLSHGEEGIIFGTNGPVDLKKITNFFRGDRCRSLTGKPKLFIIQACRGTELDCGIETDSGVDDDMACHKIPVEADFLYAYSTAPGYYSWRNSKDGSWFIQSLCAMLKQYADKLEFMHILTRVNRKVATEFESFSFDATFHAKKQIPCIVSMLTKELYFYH
Kind of assay: SAR Analysis of small molecule inhibitors of Sentrin-specific proteases (SENPs) using a Caspase-3 Selectivity assay. [Related pubchem assays (depositor defined):AID2540, AID2599, AID434973, AID489001]. Format: functional.

Assay [16] addresses T5, Sentrin-specific protease 8 (Homo sapiens, UniProt Q96LD8).
T5 sequence (Q96LD8 whole entry): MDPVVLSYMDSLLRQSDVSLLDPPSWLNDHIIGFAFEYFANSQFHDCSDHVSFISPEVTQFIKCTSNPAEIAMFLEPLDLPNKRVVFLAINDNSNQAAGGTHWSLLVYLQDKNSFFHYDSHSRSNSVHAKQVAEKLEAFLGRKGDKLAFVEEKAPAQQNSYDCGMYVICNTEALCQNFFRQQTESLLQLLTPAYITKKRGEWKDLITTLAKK
Kind of assay: inhibition of human SENP8 cleavage activity – biochemical, luminescence, SAR follow-up (AID 504501). It counts as functional.

A short description of assay [17]: Mcl1-dependent cancer cell viability – HMC-1-8 cells, luminescence, dry powder, selectivity assay for A1 inhibitor project, dose response (AID 504415). Format: functional, cell-based. Conditions: Homo sapiens.
Assay [18] addresses DNA dC->dU-editing enzyme APOBEC-3A (Homo sapiens, UniProt P31941). Kind of assay: SAR analysis of small molecule inhibitors of APOBEC3A DNA Deaminase via a fluorescence-based single-stranded DNA deaminase assay. Format: functional. The note with it: read-out: IC50_Mean.
The target in assay [19] is DNA dC->dU-editing enzyme APOBEC-3G (Homo sapiens, UniProt Q9HC16). Kind of assay: inhibition of APOBEC3G ssDNA deamination – biochemical, fluorescence, single-stranded DNA substrate, SAR follow-up (AID 602136). It counts as functional. Conditions: read-out: IC50_Mean.

Activity calls are given as the source filed them.

T1 sequence (P14735 whole entry): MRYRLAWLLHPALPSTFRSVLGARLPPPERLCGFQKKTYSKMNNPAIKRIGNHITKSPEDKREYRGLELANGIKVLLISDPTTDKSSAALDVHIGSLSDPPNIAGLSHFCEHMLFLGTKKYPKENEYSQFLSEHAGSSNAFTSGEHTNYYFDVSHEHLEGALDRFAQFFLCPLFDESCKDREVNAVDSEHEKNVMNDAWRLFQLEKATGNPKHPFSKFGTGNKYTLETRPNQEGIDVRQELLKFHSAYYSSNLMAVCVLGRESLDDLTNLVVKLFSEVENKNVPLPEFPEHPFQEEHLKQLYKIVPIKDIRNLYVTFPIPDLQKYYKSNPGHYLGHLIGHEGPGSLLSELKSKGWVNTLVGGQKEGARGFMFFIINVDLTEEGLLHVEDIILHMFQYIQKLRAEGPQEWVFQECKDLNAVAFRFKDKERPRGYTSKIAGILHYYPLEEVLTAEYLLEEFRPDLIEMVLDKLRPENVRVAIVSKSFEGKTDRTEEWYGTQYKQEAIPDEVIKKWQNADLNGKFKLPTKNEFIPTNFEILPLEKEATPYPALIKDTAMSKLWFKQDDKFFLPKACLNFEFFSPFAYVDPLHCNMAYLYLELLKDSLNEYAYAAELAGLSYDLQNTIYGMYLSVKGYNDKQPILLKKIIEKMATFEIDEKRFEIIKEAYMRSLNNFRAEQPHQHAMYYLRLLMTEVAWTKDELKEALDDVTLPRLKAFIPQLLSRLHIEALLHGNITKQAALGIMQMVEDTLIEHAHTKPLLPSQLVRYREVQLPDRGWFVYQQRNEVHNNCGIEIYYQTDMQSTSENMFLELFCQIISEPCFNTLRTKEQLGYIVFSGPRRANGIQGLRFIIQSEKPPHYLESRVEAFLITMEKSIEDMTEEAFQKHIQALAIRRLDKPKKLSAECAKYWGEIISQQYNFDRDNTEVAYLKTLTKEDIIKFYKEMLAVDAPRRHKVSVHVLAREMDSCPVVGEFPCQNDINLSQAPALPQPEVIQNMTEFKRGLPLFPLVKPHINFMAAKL
Sequence of Multidrug resistance protein CDR1 (P43071 whole entry, looked up): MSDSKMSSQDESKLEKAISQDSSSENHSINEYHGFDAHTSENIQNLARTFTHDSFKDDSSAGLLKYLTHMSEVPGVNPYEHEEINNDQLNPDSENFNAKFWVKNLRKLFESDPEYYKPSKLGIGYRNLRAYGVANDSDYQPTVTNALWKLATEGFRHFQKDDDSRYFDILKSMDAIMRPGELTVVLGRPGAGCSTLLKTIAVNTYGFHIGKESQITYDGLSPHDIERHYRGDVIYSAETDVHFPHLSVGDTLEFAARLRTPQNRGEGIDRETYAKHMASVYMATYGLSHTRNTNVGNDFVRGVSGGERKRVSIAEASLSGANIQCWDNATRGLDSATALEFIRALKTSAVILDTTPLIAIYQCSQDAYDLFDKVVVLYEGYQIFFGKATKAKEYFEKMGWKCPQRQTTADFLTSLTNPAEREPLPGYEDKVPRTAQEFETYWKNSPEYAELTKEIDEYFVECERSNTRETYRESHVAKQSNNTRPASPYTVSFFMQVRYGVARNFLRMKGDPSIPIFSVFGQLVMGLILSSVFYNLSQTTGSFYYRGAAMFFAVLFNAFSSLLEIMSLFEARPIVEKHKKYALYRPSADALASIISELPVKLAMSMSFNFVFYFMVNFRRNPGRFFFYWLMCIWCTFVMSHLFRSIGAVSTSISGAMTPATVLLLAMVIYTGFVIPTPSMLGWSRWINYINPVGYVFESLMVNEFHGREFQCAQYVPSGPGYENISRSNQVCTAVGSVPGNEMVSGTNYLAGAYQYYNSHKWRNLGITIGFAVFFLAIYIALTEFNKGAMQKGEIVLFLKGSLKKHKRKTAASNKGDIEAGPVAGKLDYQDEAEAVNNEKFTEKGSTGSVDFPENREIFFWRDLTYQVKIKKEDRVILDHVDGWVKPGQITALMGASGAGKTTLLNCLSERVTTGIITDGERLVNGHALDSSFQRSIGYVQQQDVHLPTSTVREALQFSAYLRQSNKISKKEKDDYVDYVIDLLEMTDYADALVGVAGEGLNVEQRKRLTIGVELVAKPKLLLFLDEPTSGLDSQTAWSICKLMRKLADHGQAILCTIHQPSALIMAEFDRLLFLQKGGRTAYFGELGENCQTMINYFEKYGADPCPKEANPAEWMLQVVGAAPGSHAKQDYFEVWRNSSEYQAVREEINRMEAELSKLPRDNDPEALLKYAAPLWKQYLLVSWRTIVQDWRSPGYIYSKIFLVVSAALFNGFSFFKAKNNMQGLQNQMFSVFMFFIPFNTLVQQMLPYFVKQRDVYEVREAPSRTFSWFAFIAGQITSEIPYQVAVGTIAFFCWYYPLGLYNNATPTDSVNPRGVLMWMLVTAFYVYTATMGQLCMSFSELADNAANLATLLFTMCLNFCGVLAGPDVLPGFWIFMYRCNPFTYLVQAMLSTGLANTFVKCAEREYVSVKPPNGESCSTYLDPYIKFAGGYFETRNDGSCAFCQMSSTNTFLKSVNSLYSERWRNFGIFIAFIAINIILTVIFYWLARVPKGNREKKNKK
Sequence of 26S proteasome non-ATPase regulatory subunit 14 (O00487 whole entry): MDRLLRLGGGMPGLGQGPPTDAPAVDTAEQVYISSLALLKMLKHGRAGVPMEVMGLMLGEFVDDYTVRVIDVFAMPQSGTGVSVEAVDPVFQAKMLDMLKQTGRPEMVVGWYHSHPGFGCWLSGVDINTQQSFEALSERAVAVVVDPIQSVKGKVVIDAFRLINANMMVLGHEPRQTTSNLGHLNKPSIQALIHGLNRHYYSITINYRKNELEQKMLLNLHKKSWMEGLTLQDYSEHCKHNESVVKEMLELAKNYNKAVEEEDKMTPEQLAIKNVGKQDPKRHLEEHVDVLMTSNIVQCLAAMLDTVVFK
Sequence of Protein disulfide-isomerase (P07237 whole entry): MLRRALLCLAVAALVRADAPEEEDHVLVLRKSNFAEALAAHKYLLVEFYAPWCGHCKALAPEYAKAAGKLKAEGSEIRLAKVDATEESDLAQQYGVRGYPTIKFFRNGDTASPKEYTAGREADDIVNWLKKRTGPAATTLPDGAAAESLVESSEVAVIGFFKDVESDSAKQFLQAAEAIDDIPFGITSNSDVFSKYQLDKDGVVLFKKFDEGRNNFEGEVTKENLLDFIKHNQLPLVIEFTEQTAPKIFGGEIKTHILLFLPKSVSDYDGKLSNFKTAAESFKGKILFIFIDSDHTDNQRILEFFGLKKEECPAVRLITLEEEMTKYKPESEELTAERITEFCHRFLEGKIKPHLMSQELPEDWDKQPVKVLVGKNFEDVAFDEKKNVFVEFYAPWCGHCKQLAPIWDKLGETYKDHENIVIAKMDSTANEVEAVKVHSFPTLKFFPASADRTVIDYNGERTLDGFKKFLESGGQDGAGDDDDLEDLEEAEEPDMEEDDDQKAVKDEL
Sequence of 72 kDa type IV collagenase (P08253 whole entry): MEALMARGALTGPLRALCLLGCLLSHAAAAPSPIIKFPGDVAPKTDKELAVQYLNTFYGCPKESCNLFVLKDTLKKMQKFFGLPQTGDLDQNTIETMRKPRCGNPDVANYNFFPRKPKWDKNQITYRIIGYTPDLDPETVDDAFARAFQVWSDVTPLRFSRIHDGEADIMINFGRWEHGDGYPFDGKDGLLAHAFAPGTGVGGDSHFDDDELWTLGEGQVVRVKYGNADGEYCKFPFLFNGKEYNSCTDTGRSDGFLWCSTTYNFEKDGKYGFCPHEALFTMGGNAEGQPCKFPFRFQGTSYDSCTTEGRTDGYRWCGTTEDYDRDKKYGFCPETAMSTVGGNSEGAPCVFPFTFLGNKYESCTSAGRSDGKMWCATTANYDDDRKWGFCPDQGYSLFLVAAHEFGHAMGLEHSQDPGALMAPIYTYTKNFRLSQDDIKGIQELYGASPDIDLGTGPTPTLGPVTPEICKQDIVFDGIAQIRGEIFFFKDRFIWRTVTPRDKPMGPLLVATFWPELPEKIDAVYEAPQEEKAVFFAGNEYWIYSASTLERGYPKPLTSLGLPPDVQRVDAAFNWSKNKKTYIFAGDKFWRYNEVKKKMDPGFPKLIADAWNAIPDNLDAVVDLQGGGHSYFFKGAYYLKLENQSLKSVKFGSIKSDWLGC
Sequence of Beta-lactamase (Pseudomonas aeruginosa, UniProt Q79MP6) (Q79MP6 whole entry): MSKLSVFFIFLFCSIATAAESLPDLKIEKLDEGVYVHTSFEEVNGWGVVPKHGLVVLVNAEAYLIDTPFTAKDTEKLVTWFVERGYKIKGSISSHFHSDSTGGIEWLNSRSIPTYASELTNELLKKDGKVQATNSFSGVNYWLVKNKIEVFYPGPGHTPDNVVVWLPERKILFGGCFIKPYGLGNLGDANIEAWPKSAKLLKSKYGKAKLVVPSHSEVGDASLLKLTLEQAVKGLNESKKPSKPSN
Sequence of DNA dC->dU-editing enzyme APOBEC-3A (P31941 whole entry): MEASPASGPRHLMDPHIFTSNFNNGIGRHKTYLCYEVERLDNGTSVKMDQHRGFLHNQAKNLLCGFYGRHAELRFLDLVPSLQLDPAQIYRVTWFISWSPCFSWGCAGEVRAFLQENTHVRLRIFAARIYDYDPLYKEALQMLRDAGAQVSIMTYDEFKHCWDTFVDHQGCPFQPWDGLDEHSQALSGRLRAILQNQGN
Sequence of Beta-lactamase (Salmonella choleraesuis (strain SC-B67), UniProt Q5J463) (Q5J463 whole entry): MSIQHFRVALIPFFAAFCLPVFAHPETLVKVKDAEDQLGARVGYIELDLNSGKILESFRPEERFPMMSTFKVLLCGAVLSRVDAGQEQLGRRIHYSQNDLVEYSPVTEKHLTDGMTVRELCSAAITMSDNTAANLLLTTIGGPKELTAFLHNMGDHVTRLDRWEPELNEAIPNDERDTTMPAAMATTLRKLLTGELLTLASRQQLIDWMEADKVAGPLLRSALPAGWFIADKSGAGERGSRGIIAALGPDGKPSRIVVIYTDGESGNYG

With `O=C(CSc1nnc(Cc2cccs2)n1Cc1ccco1)Nc1ccc(Br)cc1`, the EC50 is 3.12 µM (active) in assay [1] and 0.009 µM (active) in assay [2].
Regarding `O=C(O)c1ccccc1Nc1ccc([N+](=O)[O-])c2nonc12`, the IC50 with HEK293 [3] was > 89.2 µM (inactive). Besides, the EC50 on Insulin-degrading enzyme [4], in the assay with HEK293 [5] and on Insulin-degrading enzyme [6] was > 54.7 µM (inactive) throughout.
For `CCOC(=O)c1c(CNCCN(CC)CC)n(C)c2cc(Br)c(OC)cc12`, in assay [7], the AC50 was 0.376 µM (active).
Take `COc1cc(/C=C2/SC(=S)N(Cc3ccccc3)C2=O)cc(OC)c1O`: the results for the EC50 in assay [8] and in assay [12] were 27.8 µM (inconclusive) and 31.9 µM (active), respectively. Further, the IC50 was > 59.6 µM (inactive) on Beta-lactamase [9]; > 59.6 µM (inactive) on Beta-lactamase [10]; > 100 µM (inactive) in [11]; 2.9 µM (active) on Prothrombin; 2.36 µM (active) in [13].
On to `CCC(=O)c1ccc(OCC(=O)N(c2ccccc2)c2nc(-c3ccccc3)ns2)cc1`, for which the IC50 was 32 µM (active) in assay [14], 65.1 µM (active) in assay [15], > 99 µM (inactive) on Caspase-3 and 96.7 µM (active) in assay [16].
For `O=[N+]([O-])c1cnc2ccccc2c1Sc1ccccc1`, the AC50 in [17] is 39.2 µM (active).
Regarding `CC(=O)c1c(C)[nH]c(C(=O)CN(C)CC(=O)Nc2ccc(F)c(F)c2F)c1C`, the IC50 in assay [18] and in assay [19] was > 99 µM (inactive) each time.

The EC50 is the concentration needed to bring the measured effect to its halfway point. A word on the AC50: it is the concentration giving half of the maximal activity seen.

The record behind these values is ChEMBL document CHEMBL1201862, “PubChem BioAssay data set” (2004).
